Laboratory results from PubChem BioAssay (NCI).
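Cultured in 96-well plates, cells were exposed to test compound for 48 hours across five concentrations. Definition used: TGI = concentration required for complete inhibition of growth.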 Where a SMILES comes first, the peptide text is derived from it. The star is where a group is joined. Boc = CC(C)(C)OC(=O)*; OBn = c1ccc(CO*)cc1

Key:
Experiment in all cases: growth of human tumour cells (NCI), 48 h
NCI-H23 lung = tested on: NCI-H23 lung
ACHN renal = tested on: ACHN renal
CCRF-CEM leukemia = tested on: CCRF-CEM leukemia
HL-60(TB) leukemia = tested on: HL-60(TB) leukemia
OVCAR-8 ovarian = tested on: OVCAR-8 ovarian
A549 NSCLC = tested on: A549 NSCLC
NCI-H460 lung = tested on: NCI-H460 lung
IGROV1 ovarian = tested on: IGROV1 ovarian
SK-MEL-28 melanoma = tested on: SK-MEL-28 melanoma
RXF 393 renal = tested on: RXF 393 renal
HCT-116 colon = tested on: HCT-116 colon
UO-31 renal = tested on: UO-31 renal
K-562 leukemia = tested on: K-562 leukemia
UACC-257 melanoma = tested on: UACC-257 melanoma
MDA-MB-435 = tested on: MDA-MB-435
EKVX NSCLC = tested on: EKVX NSCLC
MDA-N = tested on: MDA-N
A498 renal = tested on: A498 renal
NCI-H226 lung = tested on: NCI-H226 lung

SMILES	TGI (NCI-H23 lung) [µM]	TGI (ACHN renal) [µM]	TGI (CCRF-CEM leukemia) [µM]	TGI (HL-60(TB) leukemia) [µM]	TGI (OVCAR-8 ovarian) [µM]	TGI (A549 NSCLC) [µM]	TGI (NCI-H460 lung) [µM]	TGI (IGROV1 ovarian) [µM]	TGI (SK-MEL-28 melanoma) [µM]	TGI (RXF 393 renal) [µM]	TGI (HCT-116 colon) [µM]	TGI (UO-31 renal) [µM]	TGI (K-562 leukemia) [µM]	TGI (UACC-257 melanoma) [µM]	TGI (MDA-MB-435) [µM]	TGI (EKVX NSCLC) [µM]	TGI (MDA-N) [µM]	TGI (A498 renal) [µM]	TGI (NCI-H226 lung) [µM]
CCC(C)C(C(=O)N/N=C1/SCC(=O)N1c1ccccc1)C(=O)N/N=C1/SCC(=O)N1c1ccccc1 (stereo unspecified)	> 100	> 100	> 100	> 100	> 100	> 100	> 100	> 100	33.9	42.9	58.9	> 100	> 100	> 100	35.9	> 100	94.6		
COc1ccc2nc3c([N+](=O)[O-])ccc4c3c(c2c1)N=CN4CCCN(C)C	18.7	15.3	3.18	6.27	25.7	13.4	16.3	6.16	31.5		14.1	10.7	2.19	17.2	20.1	16.2	21.8	21.4	24.9
CC1=NN(C(=O)CC(=O)Nc2ccc(C)cc2)C(=O)C1N=Nc1ccc(C(=O)O)cc1 (stereo unspecified)	> 100	> 100	> 100	> 100	> 100	> 100		> 100	> 100	> 100	> 100	> 100	> 100	> 100	> 100	> 100	> 100	> 100	
Cc1cc(C)nc(NS(=O)(=O)c2ccc(Nc3c4ccccc4nc4c(C(=O)NNCCO)cccc34)cc2)n1	> 100	> 100	> 100	> 100	> 100	> 100	> 100	> 100	> 100			> 100	> 100	> 100	> 100	> 100	> 100	> 100	
COc1nc(C)nc2sc3c(c12)CCCC3	> 100	> 100		> 100	> 100		> 100	> 100	> 100	> 100	> 100	> 100	> 100	> 100	> 100	> 100	> 100	> 100	> 100
COC(=O)c1cc2c(o1)Sc1ccccc1NC2=O	> 100	> 100	> 100	> 100	> 100	> 100	> 100	> 100	> 100		> 100		> 100	> 100	> 100		> 100	> 100	> 100
CC1(C)C2CCC3=C(CCC4(C)C5C[C@](C)(C(=O)O)CC[C@]5(C)CC[C@]34C)[C@@]2(C)CC[C@@H]1O (stereo partly specified)	43.2	29.9	36.3	50.4		26.6	30	49.4	33.7	41.3	30.2	> 100	49		63	53	37.8	44.7	67.9
N#C/C(=C\c1cn(Cc2ccccc2)c2ccccc12)c1nn(-c2ccccc2)c(N)c1C#N	29.7	75.6	47.8	> 100	21.9	24.6	25.9	30.7	> 100	19.2	> 100	26.5	> 100	50	74.6	27.5	88.1	59.3	
COc1cc(S(=O)(=O)Nc2nc(-c3ccc(N4C(=O)C(CC(=O)O)SC4c4ccccc4O)cc3)cs2)ccc1Cl (stereo unspecified)	86.7	> 100		57	> 100	> 100	> 100	> 100	> 100	> 100	> 100	> 100	> 100	> 100	> 100		> 100	> 100	> 100
COc1cc(C2SCC(=O)N2c2ccccc2Cl)cc(OC)c1OC (stereo unspecified)	> 100	> 100	> 100	> 100	> 100	> 100	> 100	> 100	> 100		> 100	> 100	> 100	> 100	64.8	> 100	44.8	> 100	> 100
CC12CCC3[C@@H](CC3(C)C)C(O)(CCC1=O)C2 (stereo partly specified)	> 100	> 100	> 100	> 100	> 100	> 100		> 100	> 100		> 100	> 100	> 100	> 100	> 100	> 100	> 100		> 100
CC(C)C(NC(=O)C(Cc1ccccc1)NC(=O)OC(C)(C)C)C(=O)NCC(=O)OCc1ccccc1 (stereo not drawn) (Boc-Phe-Val-Gly-OBn; configuration not given here)	36.1	31.4	43	34.4	35.6		37.9	27.8	30.5		40	51.6	23.9	41.9	21.9	37.9	33.5	> 100	
CC(C)(C)[Si](C)(C)O[C@@H](C(=O)OC1C=CCCC1)[C@@H](NC(=O)c1ccccc1)c1ccccc1 (stereo partly specified)	> 100	62.9	32.5		> 100	94.9	42.2	> 100	> 100	34.3	> 100	> 100	37	> 100	> 100	> 100	> 100	> 100	> 100
COc1cc(OCc2ccc3nc(-c4ccccc4)c(Cl)nc3c2)cc(OC)c1OC	> 100	> 100	> 100	> 100	> 100	> 100	> 100	> 100	> 100		> 100	> 100		> 100	> 100	> 100	> 100	98.9	
Cc1ccc2nc(CN3CCCC(O)C3)cc(=O)n2c1 (stereo unspecified)	> 100	> 100	> 100	> 100	> 100	> 100	> 100	> 100	> 100		> 100	> 100	> 100	> 100	> 100	> 100	> 100		> 100
Cc1cc(C)nc(NS(=O)(=O)c2ccc(NNc3c4ccccc4nc4c(C(=O)Nc5ccc(S(=O)(=O)Nc6ncccn6)cc5)cccc34)cc2)n1	69.5	54.3	59.9	62.9	> 100	> 100	92	> 100	65	80.1	39.2	> 100	73.1	94.3	55.3	54.3	> 100		53.2
O=C(Nc1cccc2ccccc12)Nn1cnnc1	> 100	> 100	> 100	> 100	> 100	> 100	> 100	> 100	> 100		> 100	> 100	> 100	> 100	> 100	> 100	> 100	> 100	> 100
O=C(O)c1ccc(P(=O)(O)c2ccc(C(=O)O)cc2Br)c(Br)c1	> 100			> 100	> 100	> 100		> 100	> 100	> 100	> 100	> 100	> 100	> 100	> 100	> 100	> 100		> 100
COc1ccc(OC)c2sc(N3C(=O)/C(=C/c4ccc(Cl)cc4)N=C3c3ccccc3)nc12	> 100	> 100	> 100	> 100	> 100	> 100	> 100	> 100	> 100	> 100	> 100	> 100	86.6	> 100	> 100	> 100	> 100	> 100	
COc1ccc2c(c1)/C(=C\c1c(C)nc3n1CCS3)C(=O)N2	> 100	> 100	> 100	66.8	> 100	> 100	> 100	> 100	> 100	> 100	> 100	> 100	> 100	> 100	11.5	> 100	13.6	99.6	
